What is called GI50 is the concentration giving 50% growth inhibition.

The source of these data is patent US20090048301A1 (IMCLONE SYSTEMS INCORPORATED, priority 2003, published 2009).

Experiment [1] has as its system A431 human cancer cell line. The experiment in a line: Sulphorhodamine B (SRB) growth inhibition assay. The settings on record: A-431, A431 cells, 48 hours, read-out: SRB Assay: μM required to inhibit tumor cell growth by 50% (GI50). In kind it is cell-based. The method, then:
The in vitro growth inhibition activity of the compounds was determined by the Sulphorhodamine B assay. (Skehan P, Storeng R, Scudiero D, Monks A, McMahon J, Vistica D, Warren J T, Bokesch H, Kenney S, Boyd M R. New colorimetric cytotoxicity assay for anticancer-drug screening. J Natl Cancer Inst 82, 1107-1112, 1990). Sulphorhodamine B binds to basic amino acids and stains proteins which can be eluted and detected spectrophotometically by measuring absorbance at 515 nm. The absorbance was indicative of the total protein content of the cells fixed to the walls of the plate well at a given time by trichloroacetic acid, which is a measure of the viable cell concentration.
The in vitro growth inhibition activity of the compounds was determined using a Sulphorhodamine B assay. See, Skehan et al., “New colorimetric cytotoxicity assay for anticancer-drug screening,” J. Natl. Cancer Inst., 82, 1107-1112, (1990). Sulphorhodamine B binds to basic amino acids and stains proteins which can be eluted and detected spectrophotometically by measuring absorbance at 515 nm. The absorbance indicates the total protein content of the cells fixed to the walls of the plate well at a given time by trichloroacetic acid, which is a measure of the viable cell concentration.
The reagents used in the assay can be purchased from commercial sources and include Sulphorhodamine B 0.4% (w/v) in 1% (v/v) acetic acid (Sigma Cat#S-1402); trichloroacetic acid 50% (w/v) in deionized water, working solution (Sigma Cat#T-9159); and trizma base (Tris) 10 mM working solution, pH 7.5 (Sigma Cat#T-7693).
The procedure was cared out over four days. In Day 1, the cells were seeded in a seed 10,000 cells/100 μL/well in 96 well plate in duplicates as per template. Also, seed cells in extra plate for time zero (To plate). Thereafter, the cells were incubated for 24 hours at 37° C. with 5% CO2.
On Day 2, the test compound was added to the cells at five log doses from 100 μM to 0.01 μM (Volume of addition=100 μL in 1% DMSO for all compound concentrations, Control treatment=1% DMSO).
The compounds were prepared by weighing the test compounds in 1.5 ml eppendorf tubes and calculating the volume of DMSO to be added to bring the concentration of the compound to 20 mM. Thereafter, a 20 mM stock was made and diluted by four 10 fold dilutions in DMSO to get 2, 0.2, 0.02 and 0.002 mM solutions. Each solution was diluted 100 times (10 μL to 1 ml medium) and a further addition to the culture plate (100 μL) to half the concentration of cells was made. The final well concentration for 20 mM stock was 100 μM and similarly with other test concentrations.
The cells were incubated for 48 hours at 37° C. with 5% CO2 and terminated by adding 50 μL of 50% cold trichloroacetic acid (10% to final). Thereafter, the cells were incubated for one hour at 4° C.
On Day 4, the cells were fixed to the wells by the addition of 50 μL of 50% cold trichloroacetic acid (10% to final) and incubated for 1 hour at 4° C. The supernatant was discarded by force inverting the plate into the sink followed by washing thrice with tap water and the plates are then air-dried. 100 μL SRB (0.4% in 1% acetic acid) was added to each well and the plates were incubated for 10 minutes at room temperature. Unbound dye was removed by force inverting the plate into the sink and washing thrice with 1% acetic acid. Thereafter, the plates were allowed to air dry.
Bound SRB was solubilized with 100 μL of 10 mM Tris, pH 7.4 and the absorbance was measured at a wavelength of 515 nm.
A sample set of calculations was performed as follows. The percentage growth was calculated by T-To/C-To X 100 if T>To and T-To/To X 100 if T<To, wherein T is Test OD (with compound), C is Control OD, To is Time Zero OD (cell growth at the time of drug addition). […]

The test system of experiment [2] is A431, human epidermoid carcinoma cells. Nature of the experiment: Cell cycle analysis (FACS), mitotic arrest in G2/M. Format: cell-based. The settings on record: Homo sapiens, A-431, 24 h, read-out: FACS Assay: concentration required to achieve inhibition in FACS assay. A digest of the protocol:
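A431 cells, 500,000/well at treatment, exposed to compounds at 0.01–1 μM final (0.1% DMSO) for 24 h. Ethanol-fixed cells RNase-treated (1 μg/ml, 37° C., 15 min), stained with propidium iodide (50 μg/ml, 30 min, RT). DNA ploidy by flow cytometry; mitotic arrest scored as G2/M accumulation.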

Experiment [3] has as its system bovine tubulin. Nature of the experiment: In vitro tubulin polymerization assay (turbidity at 340 nm). Format: biochemical. The settings on record: 10 μM compound, 30 minute data point, vs 1% DMSO control. Summed up: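 Percent inhibition derives from turbidity (340 nm) at 30 min relative to 1% DMSO controls, read every minute at 37° C. Polymerization mix: 3 mg/ml bovine tubulin, <3% MAPs, in PIPES pH 7 G-PEM with 1 mM GTP, 1 mM MgCl2, 5% glycerol; enhancers also detectable.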

On to `COc1ccc(Nc2nnc(-c3cccnc3NCc3ccc4c(c3)OCO4)[nH]2)c(OC)c1` [Compound 17, Benzo[1,3]dioxol-5-ylmethyl-{3-[5-(2,4-dimethoxy-phenylamino)-4H-[1,2,4]triazol-3-yl]-pyridin-2-yl}-amine], for which the GI50 in experiment [1] amounted to 4 µM. The minimal effective concentration in experiment [2] came out at 10 µM. Moreover, the “Tubulin Assay: percent inhibition at 10 μM based on 30 minute data” value (“Tubulin Assay: percent inhibition” for short) in experiment [3] worked out at 80%.
On to `COc1ccc(-c2nnc(-c3cccnc3NCc3ccc4c(c3)OCO4)[nH]2)cc1OC` [Compound 78, Benzo[1,3]dioxol-5-ylmethyl-{3-[5-(3,4-dimethoxy-phenyl)-4H-[1,2,4]triazol-3-yl]-pyridin-2-yl}-amine], for which the GI50 in experiment [1] amounted to 3 µM. In experiment [2], the minimal effective concentration came to 1 µM. For the same compound, in experiment [3], the “Tubulin Assay: percent inhibition” value was 55%.
As for `COc1cc(CNc2ncccc2-c2nnc(Nc3ccc(OC)c(OC)c3)o2)cc(OC)c1` [Compound 183, (3,5-Dimethoxy-benzyl)-{3-[5-(3,4-dimethoxy-phenylamino)-[1,3,4]oxadiazol-2-yl]-pyridin-2-yl}-amine], the GI50 in experiment [1] amounted to 6 µM. Also, the minimal effective concentration in experiment [2] is 0.1 µM. Besides, the “Tubulin Assay: percent inhibition” value in experiment [3] turned out to be 50%.
Taken in the same sequence, the figures for `COc1ccc(OC)c(Nc2nnc(-c3cccnc3NCc3ccc4c(c3)OCO4)[nH]2)c1` [Compound 14, Benzo[1,3]dioxol-5-ylmethyl-{3-[5-(2,5-dimethoxy-phenylamino)-4H-[1,2,4]triazol-3-yl]-pyridin-2-yl}-amine] were 20 µM, 100 µM and 24%.
Regarding `CS(=O)(=O)c1ccc(-c2nnc(-c3ccccc3NCc3ccncc3)[nH]2)cc1` [Compound 129], the GI50 in experiment [1] came out at 0.025 µM. In experiment [2], the minimal effective concentration was 0.1 µM. The “Tubulin Assay: percent inhibition” value in experiment [3] came to 84%.
As to `CN(C)c1ccc(Nc2nnc(-c3cccnc3Nc3ccc4cn[nH]c4c3)[nH]2)cc1` [Compound 21, (1H-Indazol-6-yl)-{3-[5-(4-dimethylamino-phenylamino)-4H-[1,2,4]triazol-3-yl]-pyridin-2-yl}-amine], the GI50 in experiment [1] is 40 µM. Moreover, the minimal effective concentration in experiment [2] stood at 100 µM. Moreover, the “Tubulin Assay: percent inhibition” value in experiment [3] was determined as 24%.
The matching figures for `COc1cc(Nc2ncccc2-c2nnc(Nc3cc(OC)ccc3OC)[nH]2)cc(OC)c1` [Compound 5, (3,5-Dimethoxy-phenyl)-{3-[5-(2,5-dimethoxy-phenylamino)-4H-[1,2,4]triazol-3-yl]-pyridin-2-yl}-amine]: 10 µM, 100 µM and 20%.
The matching figures for `COc1cc(Nc2ncccc2-c2nnc(Nc3ccc4c(c3)OCO4)[nH]2)cc(OC)c1` [Compound 30, {3-[5-(Benzo[1,3]dioxol-5-ylamino)-4H-[1,2,4]triazol-3-yl]-pyridin-2-yl}-(3,5-dimethoxy-phenyl)-amine]: 0.01 µM, 0.1 µM and 87%.
The matching figures for `C#Cc1ccc(-c2nnc(-c3ccccc3NCc3ccncc3)[nH]2)cc1` [Compound 131, {2-[5-(4-Ethynyl-phenyl)-4H-[1,2,4]triazol-3-yl]-phenyl}-pyridin-4-ylmethyl-amine]: 0.06 µM, 0.1 µM and 46%.
On to `COc1cc(Nc2ncccc2-c2nnc(Nc3ccc4c(c3)OCO4)o2)cc(OC)c1` [Compound 177, {3-[5-(Benzo[1,3]dioxol-5-ylamino)-[1,3,4]oxadiazol-2-yl]-pyridin-2-yl}-(3,5-dimethoxy-phenyl)-amine], for which the GI50 in experiment [1] stood at 0.04 µM. In addition, the minimal effective concentration in experiment [2] is 0.01 µM. Also, the “Tubulin Assay: percent inhibition” value in experiment [3] amounted to 45%.
Regarding `COc1cc(Nc2ncccc2-c2nnc(Nc3cc(Cl)cc(Cl)c3)[nH]2)cc(OC)c1` [Compound 53, {3-[5-(3,5-Dichloro-phenylamino)-4H-[1,2,4]triazol-3-yl]-pyridin-2-yl}-(3,5-dimethoxy-phenyl)-amine], in experiment [1], the GI50 came out at 6 µM. Besides, the “Tubulin Assay: percent inhibition” value in experiment [3] is on record as 44%.
Turning to `c1cnc(NCc2ccc3c(c2)OCO3)c(-c2nnc(Nc3ccc4c(c3)OCO4)[nH]2)c1` [Compound 33, {3-[5-(Benzo[1,3]dioxol-5-ylamino)-4H-[1,2,4]triazol-3-yl]-pyridin-2-yl}-benzo[1,3]dioxol-5-ylmethyl-amine], the GI50 in experiment [1] stood at 10 µM. Further, in experiment [3], the “Tubulin Assay: percent inhibition” value is reported as 60%.
Regarding `c1ccc(-c2nnc(Nc3ccc4c(c3)OCO4)[nH]2)c(NCc2ccncc2)c1` [Compound 111, Benzo[1,3]dioxol-5-yl-(5-{2-[(pyridin-4-ylmethyl)-amino]-phenyl}-4H-[1,2,4]triazol-3-yl)-amine], the GI50 in experiment [1] turned out to be 10 µM. Further, the “Tubulin Assay: percent inhibition” value in experiment [3] was 70%.
Regarding `FC(F)(F)c1cccc(-c2nnc(-c3ccccc3NCc3cccnc3)[nH]2)c1` [Compound 130, Pyridin-3-ylmethyl-{2-[5-(3-trifluoromethyl-phenyl)-4H-[1,2,4]triazol-3-yl]-phenyl}-amine], in experiment [1], the GI50 came to 2.75 µM. The “Tubulin Assay: percent inhibition” value in experiment [3] is 47%.
The matching figures for `COc1cc(Nc2ncccc2-c2nnc(Nc3ccc(OC)c(OC)c3)o2)cc(OC)c1` [Compound 178, (3,5-Dimethoxy-phenyl)-{3-[5-(3,4-dimethoxy-phenylamino)-[1,3,4]oxadiazol-2-yl]-pyridin-2-yl}-amine]: 0.3 µM and 40%.
The matching figures for `COc1ccc(Nc2nnc(-c3cccnc3NCc3cccnc3)o2)cc1OC` [Compound 190, {3-[5-(3,4-Dimethoxy-phenylamino)-[1,3,4]oxadiazol-2-yl]-pyridin-2-yl}-pyridin-3-ylmethyl-amine]: 15 µM and 56%.
As for `FC(F)(F)c1ccc(-c2nnc(-c3cccnc3NCc3ccc4c(c3)OCO4)[nH]2)cc1` [Compound 84, Benzo[1,3]dioxol-5-ylmethyl-{3-[5-(4-trifluoromethyl-phenyl)-4H-[1,2,4]triazol-3-yl]-pyridin-2-yl}-amine], the GI50 in experiment [1] came to 2.5 µM. Besides, the “Tubulin Assay: percent inhibition” value in experiment [3] came to 27%.
Take `COc1ccc(Nc2nnc(-c3cccnc3NCc3ccc4c(c3)OCO4)o2)cc1OC` [Compound 180, Benzo[1,3]dioxol-5-ylmethyl-{3-[5-(3,4-dimethoxy-phenylamino)-[1,3,4]oxadiazol-2-yl]-pyridin-2-yl}-amine]: in experiment [1], the GI50 was determined as 1.5 µM. In addition, the “Tubulin Assay: percent inhibition” value in experiment [3] is 32%.
